Earlier results, collected in publication PMC6650409, “Modeling the binding of diverse ligands within the Ah receptor ligand binding domain” (Scientific Reports, 2019).

Columns and labels:
[1] = biological target: T1, M334A mutant AhR (Mus musculus, UniProt P30561, M334A); parameters: method as in PMID 21981577; conditions: M334A mutation; cited from earlier work
T1 construct: made in house; host or cells: in vitro, Promega TNT Quick rabbit reticulocyte lysate
T1 sequence (P30561 10-848 M334A): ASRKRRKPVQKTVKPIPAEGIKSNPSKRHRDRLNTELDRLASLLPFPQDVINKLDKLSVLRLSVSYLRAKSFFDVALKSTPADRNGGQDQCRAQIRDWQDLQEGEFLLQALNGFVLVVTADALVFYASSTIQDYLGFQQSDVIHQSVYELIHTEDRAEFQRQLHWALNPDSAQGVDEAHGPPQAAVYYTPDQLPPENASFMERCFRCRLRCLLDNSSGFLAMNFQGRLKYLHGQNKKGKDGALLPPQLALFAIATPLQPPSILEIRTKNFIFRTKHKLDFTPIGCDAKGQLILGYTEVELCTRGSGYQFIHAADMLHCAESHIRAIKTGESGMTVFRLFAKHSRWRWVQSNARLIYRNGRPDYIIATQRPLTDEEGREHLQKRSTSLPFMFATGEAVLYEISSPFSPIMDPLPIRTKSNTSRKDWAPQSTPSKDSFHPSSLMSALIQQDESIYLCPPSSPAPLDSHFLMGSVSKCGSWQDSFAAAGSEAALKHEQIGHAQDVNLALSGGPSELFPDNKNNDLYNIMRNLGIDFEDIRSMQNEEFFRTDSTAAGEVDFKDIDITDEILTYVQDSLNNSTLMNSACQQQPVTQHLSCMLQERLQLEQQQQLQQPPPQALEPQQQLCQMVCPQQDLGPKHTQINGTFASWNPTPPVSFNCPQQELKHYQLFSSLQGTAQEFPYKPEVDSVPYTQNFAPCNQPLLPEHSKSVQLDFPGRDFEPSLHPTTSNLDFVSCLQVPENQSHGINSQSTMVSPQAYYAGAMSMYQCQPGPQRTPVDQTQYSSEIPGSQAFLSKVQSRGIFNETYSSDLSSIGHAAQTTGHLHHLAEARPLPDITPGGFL

[2] = biological target: T2, L309A mutant AhR (Mus musculus, UniProt P30561, L309A); parameters: method as in PMID 21981577; conditions: L309A mutation; cited from earlier work
T2 construct: made in house; host or cells: in vitro transcription/translation (rabbit reticulocyte lysate)
T2 sequence (P30561 10-848 L309A): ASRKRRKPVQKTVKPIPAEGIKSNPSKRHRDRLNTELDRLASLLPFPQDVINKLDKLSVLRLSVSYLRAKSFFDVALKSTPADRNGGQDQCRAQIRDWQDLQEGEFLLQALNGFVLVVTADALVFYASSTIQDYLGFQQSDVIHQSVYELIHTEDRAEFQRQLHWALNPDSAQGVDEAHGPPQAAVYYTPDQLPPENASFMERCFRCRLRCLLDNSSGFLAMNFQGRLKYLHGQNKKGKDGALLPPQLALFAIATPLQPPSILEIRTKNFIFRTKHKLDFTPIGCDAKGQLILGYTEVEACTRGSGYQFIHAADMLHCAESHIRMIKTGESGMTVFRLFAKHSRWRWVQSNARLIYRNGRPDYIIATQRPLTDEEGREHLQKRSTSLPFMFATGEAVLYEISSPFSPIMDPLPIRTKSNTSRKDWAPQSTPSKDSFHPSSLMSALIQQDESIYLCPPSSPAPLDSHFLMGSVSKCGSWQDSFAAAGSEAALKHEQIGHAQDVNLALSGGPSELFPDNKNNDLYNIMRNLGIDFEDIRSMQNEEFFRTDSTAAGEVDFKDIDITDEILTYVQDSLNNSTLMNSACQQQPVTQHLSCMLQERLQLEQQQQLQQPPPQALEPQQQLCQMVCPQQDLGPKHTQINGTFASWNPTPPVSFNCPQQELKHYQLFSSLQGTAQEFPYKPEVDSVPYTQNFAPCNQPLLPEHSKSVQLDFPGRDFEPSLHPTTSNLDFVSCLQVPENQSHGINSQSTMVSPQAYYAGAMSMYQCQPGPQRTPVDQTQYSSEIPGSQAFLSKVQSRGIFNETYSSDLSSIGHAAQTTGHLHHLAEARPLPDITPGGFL
T2 sequence (P53762 whole entry partner): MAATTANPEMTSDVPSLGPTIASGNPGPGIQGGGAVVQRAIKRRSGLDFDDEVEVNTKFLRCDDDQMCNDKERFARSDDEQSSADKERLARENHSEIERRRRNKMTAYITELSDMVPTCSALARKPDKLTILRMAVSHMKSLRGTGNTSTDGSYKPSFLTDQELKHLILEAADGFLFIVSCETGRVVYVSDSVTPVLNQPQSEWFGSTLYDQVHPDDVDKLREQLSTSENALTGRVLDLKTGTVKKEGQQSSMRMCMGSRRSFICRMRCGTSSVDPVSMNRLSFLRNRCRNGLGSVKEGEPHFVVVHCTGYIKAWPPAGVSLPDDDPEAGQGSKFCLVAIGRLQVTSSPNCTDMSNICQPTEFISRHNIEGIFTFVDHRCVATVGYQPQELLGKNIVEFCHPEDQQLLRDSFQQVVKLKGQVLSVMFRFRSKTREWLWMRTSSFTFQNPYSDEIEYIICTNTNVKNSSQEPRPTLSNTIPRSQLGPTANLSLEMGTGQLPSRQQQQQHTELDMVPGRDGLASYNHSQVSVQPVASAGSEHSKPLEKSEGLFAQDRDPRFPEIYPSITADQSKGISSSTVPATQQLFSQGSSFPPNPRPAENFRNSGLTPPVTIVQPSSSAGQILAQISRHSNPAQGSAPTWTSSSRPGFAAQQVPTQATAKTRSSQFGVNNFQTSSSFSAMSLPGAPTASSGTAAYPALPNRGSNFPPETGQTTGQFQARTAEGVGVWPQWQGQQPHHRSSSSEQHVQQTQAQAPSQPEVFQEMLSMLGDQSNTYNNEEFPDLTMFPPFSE

[3] = test system: Q377A mutant AhR; parameters: method as in PMID 17223691; conditions: mutation of Q377 to alanine; cited from earlier work
[4] = test system: zebrafish AhR1a (zfAhR1a); conditions: cited from earlier work

For `Clc1cc2c(cc1Cl)Oc1cc(Cl)c(Cl)cc1O2` [TCDD, 2,3,7,8-tetrachlorodibenzo-p-dioxin], the TCDD binding activity [1] is given as “only partially affected”, the TCDD binding activity [2] is given as “dramatically reduced” and the TCDD specific binding [3] is given as “abolish”. For the same compound, the “ligand binding to zfAhR1a” value [4] was “unable to bind”.
